Data as given in paper PMC10377541, “Further Characterization of Fungal Halogenase RadH and Its Homologs” (Biomolecules, 2023).

Experiments:
[1] = target: T1, E3R0Q3 (Colletotrichum graminicola, UniProt E3R0Q3); assay: HPLC-MS chlorination assay; assay type: biochemical; conditions: FAD, Fre, NADH, MgCl2, Tris HCl pH 7.4, 18 h
T1 construct: gene GLRG_11837; heterologously expressed in E. coli; RadH homolog

[2] = target: T2, A0A066XG69 (Colletotrichum sublineola, UniProt A0A066XG69); assay: HPLC-MS chlorination assay; assay type: biochemical; conditions: FAD, Fre, NADH, MgCl2, Tris HCl pH 7.4, 18 h
T2 construct: gene CSUB01_08252; heterologously expressed in E. coli; RadH homolog

[3] = target: T3, RadH (Floropilus chiversii, UniProt C5H881); assay: X-ray crystallography, […] Å; conditions: FAD bound in the flavin-binding domain; chlorine atom in adjacent space; crystals pH 6.5
T3 construct: codon-optimized synthetic gene in pET28, expressed in E. coli T7 Express, Ni-NTA purified; two monomers in the asymmetric unit
T3 sequence (C5H881 whole entry, the tested form may be a part): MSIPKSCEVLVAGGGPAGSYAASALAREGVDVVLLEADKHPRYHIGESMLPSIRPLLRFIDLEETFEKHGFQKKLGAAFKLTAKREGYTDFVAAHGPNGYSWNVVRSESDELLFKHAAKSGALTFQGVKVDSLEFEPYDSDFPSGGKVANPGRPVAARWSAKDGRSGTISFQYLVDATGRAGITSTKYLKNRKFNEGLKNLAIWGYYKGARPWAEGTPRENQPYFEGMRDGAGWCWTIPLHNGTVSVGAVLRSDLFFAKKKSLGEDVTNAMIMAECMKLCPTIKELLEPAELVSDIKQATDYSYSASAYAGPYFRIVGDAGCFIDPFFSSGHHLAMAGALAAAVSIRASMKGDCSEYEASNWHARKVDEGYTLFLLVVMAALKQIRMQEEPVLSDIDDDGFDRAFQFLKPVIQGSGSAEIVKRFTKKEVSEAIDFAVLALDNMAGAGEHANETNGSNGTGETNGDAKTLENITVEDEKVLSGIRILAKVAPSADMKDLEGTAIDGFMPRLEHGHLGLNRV

T1 sequence (E3R0Q3 1-512): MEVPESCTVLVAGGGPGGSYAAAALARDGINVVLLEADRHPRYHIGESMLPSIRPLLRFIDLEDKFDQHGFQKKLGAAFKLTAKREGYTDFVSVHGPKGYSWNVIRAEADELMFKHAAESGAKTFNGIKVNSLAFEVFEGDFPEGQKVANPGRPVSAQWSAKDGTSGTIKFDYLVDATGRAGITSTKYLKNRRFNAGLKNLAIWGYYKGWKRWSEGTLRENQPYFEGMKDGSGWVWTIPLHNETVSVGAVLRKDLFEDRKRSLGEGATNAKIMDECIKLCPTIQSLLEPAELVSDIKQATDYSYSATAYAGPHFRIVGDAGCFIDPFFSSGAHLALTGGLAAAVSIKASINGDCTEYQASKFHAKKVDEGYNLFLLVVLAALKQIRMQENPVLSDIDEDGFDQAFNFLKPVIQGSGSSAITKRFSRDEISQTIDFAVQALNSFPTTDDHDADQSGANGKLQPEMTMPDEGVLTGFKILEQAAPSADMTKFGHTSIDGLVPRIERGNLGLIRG
T2 sequence (A0A066XG69 1-512): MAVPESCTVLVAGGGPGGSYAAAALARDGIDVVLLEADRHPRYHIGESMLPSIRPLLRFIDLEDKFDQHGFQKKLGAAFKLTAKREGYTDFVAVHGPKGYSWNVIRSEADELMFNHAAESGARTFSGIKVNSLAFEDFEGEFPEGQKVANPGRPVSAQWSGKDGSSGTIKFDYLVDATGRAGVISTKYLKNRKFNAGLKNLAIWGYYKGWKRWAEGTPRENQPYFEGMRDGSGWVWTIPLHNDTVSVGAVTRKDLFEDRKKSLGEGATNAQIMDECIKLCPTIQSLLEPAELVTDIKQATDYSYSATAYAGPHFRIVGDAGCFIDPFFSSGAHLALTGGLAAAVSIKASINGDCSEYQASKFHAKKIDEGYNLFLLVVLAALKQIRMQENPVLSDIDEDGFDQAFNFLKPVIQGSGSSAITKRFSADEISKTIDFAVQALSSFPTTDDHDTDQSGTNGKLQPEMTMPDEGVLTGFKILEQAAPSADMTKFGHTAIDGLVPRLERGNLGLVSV

Oc1ccc2cnccc2c1 [6-hydroxyisoquinoline]
HPLC-MS chlorination assay [1]: E3R0Q3 (Colletotrichum graminicola) and A0A066XG69 (Colletotrichum sublineola), showed activity with standard 6-hydroxyhisoquinoline substrates
HPLC-MS chlorination assay [2]: A0A066XG69 demonstrated higher conversion compared to RadH or E3R0Q3

Cc1cc2nc3c(=O)[nH]c(=O)nc-3n(C[C@H](O)[C@H](O)[C@H](O)COP(=O)(O)OP(=O)(O)OC[C@H]3O[C@@H](n4cnc5c(N)ncnc54)[C@H](O)[C@@H]3O)c2cc1C [FAD]
X-ray crystallography, 2.4 Å [3]: Each monomer consists of a conserved Flavin-binding domain with FAD bound
